What was measured:
CDK2/Cyclin A = CDK2/Cyclin A (Homo sapiens, UniProt P24941); experiment: Inhibition of CDK2/Cyclin A Retinoblastoma Kinase Activity; assay type: biochemical
Procedure, shortened: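 Percent inhibition is calculated against DMSO-only wells after subtracting no-enzyme background. The enzyme is human CDK2 complexed with proteolyzed cyclin A, used at 10 nM or 19 nM on an Rb fragment with 25 μM [32/33P]ATP, at pH 7.4 and 30° C.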

[1] = molecular target: human CDK4 and genetically truncated (1-264) cyclin D3 (Homo sapiens, UniProt P11802); experiment: Inhibition of CDK4/Cyclin D Retinoblastoma Kinase Activity; assay type: biochemical
Chain of human CDK4 and genetically truncated (1-264) cyclin D3 (P11802 whole entry, the tested form may be a part): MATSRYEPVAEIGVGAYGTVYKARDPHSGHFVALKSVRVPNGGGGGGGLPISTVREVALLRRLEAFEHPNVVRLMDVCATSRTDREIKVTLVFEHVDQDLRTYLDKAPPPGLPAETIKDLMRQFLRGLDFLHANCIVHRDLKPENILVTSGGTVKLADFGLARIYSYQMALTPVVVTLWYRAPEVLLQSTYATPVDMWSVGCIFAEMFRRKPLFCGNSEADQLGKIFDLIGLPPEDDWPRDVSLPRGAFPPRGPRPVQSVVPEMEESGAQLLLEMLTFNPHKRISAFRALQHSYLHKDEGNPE
Chain of human CDK4 and genetically truncated (1-264) cyclin D3 (P30281 1-264 partner): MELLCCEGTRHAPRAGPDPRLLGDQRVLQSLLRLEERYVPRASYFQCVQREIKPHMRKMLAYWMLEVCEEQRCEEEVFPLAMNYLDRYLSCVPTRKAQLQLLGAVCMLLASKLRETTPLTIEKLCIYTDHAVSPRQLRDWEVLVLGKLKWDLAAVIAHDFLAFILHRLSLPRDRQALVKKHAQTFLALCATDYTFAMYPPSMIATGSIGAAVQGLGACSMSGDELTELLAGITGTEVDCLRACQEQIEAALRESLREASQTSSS
Procedure, shortened: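 Apparent Ki values derive from fitting activity at varied inhibitor concentrations to a competitive (or competitive tight-binding) model. Kinase reactions used 5 nM CDK4/cyclin D3(1-264), Rb fragment substrate and 25 μM ATP. Incubation ran 20 min at 30 °C, extended to 60 min under linear conditions for tight binders.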

HCT-116 cell line = experiment: Inhibition of cell growth, tetrazolium salt (MTT) assay; assay type: cell-based; conditions: for HCT-116 % Inhibition at 0.25 μM: 0.25 μM compound
Procedure, shortened: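 First, cells were seeded in McCoy's 5A medium and held 4 h. Next, inhibitor concentrations in 0.5% (v/v) DMSO were applied for three to five days at 37° C, 5% CO2. Finally, after 4 h with 0.2 mg/mL MTT and medium removal, solubilized formazan was measured at 540 nm.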

[2] = 0.1 μM compound, HCT-116, Table 4

Row | SMILES | CDK2 % Inhibition at 0.03 μM (CDK2/Cyclin A; 0.03 μM compound, Table 4) [%] | CDK4 % Inhibition at 0.03 μM ([1]; 0.03 μM compound, Table 4) [%] | HCT-116 % Inhibition at 0.1 μM (HCT-116 cell line; [2]) [%] | HCT-116 % Inhibition at 0.25 μM (HCT-116 cell line; HCT-116, Table 4) [%] | CDK2 % Inhibition at 0.03 μM (CDK2/Cyclin A; at 0.03 μM) [%] | CDK4 % Inhibition at 0.03 μM ([1]; at 0.03 μM) [%] | HCT-116 % Inhibition at 0.1 μM (HCT-116 cell line; HCT-116 cells, at 0.1 μM) [%] | HCT-116 5 Inhibition at 0.25 μM (HCT-116 cell line; HCT-116 cells)
1 | Nc1nc(NC2CCN(C(=O)Oc3ccc([N+](=O)[O-])cc3)CC2)sc1C(=O)c1c(F)cccc1F [Example Q84] | 63 | 88 | 3 | 40 |  |  |  | 
2 | Nc1nc(NC2CCN(C(=O)OCc3ccc([N+](=O)[O-])cc3)CC2)sc1C(=O)c1c(F)cccc1F [Example Q85] | 42 | 55 | 1 | 31 |  |  |  | 
3 | COC(=O)c1ccc(OC(=O)N2CCC(Nc3nc(N)c(C(=O)c4c(F)cccc4F)s3)CC2)cc1 [Example Q87] | 54 | 77 | 4 | 37 |  |  |  | 
4 | Nc1nc(NC2CCN(C(=O)C(c3ccccc3)c3ccccc3)CC2)sc1C(=O)c1c(F)cccc1F [Example R1] |  |  |  |  | −34 | 3 | 0 | 32
5 | COC(=O)CC(=O)N1CCC(Nc2nc(N)c(C(=O)c3c(F)cccc3F)s2)CC1 [Example R2] |  |  |  |  | −24 | 13 | 1 | 49
6 | CCOC(=O)CCCC(=O)N1CCC(Nc2nc(N)c(C(=O)c3c(F)cccc3F)s2)CC1 [Example R3] |  |  |  |  | −6 | 42 | 8 | 37
7 | COC(=O)CCCCC(=O)N1CCC(Nc2nc(N)c(C(=O)c3c(F)cccc3F)s2)CC1 [Example R4] |  |  |  |  | −5 | 32 | 3 | 47
8 | Nc1nc(NC2CCN(C(=O)C(=O)c3c[nH]c4ccccc34)CC2)sc1C(=O)c1c(F)cccc1F [Example R5] |  |  |  |  | −31 | 9 | 13 | 49
9 | CCOc1ccccc1C(=O)N1CCC(Nc2nc(N)c(C(=O)c3c(F)cccc3F)s2)CC1 [Example R6] |  |  |  |  | 14 | 42 | 12 | 51
10 | Nc1nc(NC2CCN(C(=O)c3ccc4c(c3)OCO4)CC2)sc1C(=O)c1c(F)cccc1F [Example R7] |  |  |  |  | −3 | 29 | 7 | 46
11 | COc1ccc(C(=O)N2CCC(Nc3nc(N)c(C(=O)c4c(F)cccc4F)s3)CC2)c(OC)c1 [Example R8] |  |  |  |  | −11 | 13 | 8 | 41
12 | CC(Oc1ccccc1)C(=O)N1CCC(Nc2nc(N)c(C(=O)c3c(F)cccc3F)s2)CC1 (stereo not drawn) [Example R9] |  |  |  |  | −15 | 19 | 5 | 37
13 | CCC(C(=O)N1CCC(Nc2nc(N)c(C(=O)c3c(F)cccc3F)s2)CC1)c1ccccc1 (stereo not drawn) [Example R10] |  |  |  |  | 5 | 29 | 0 | 40
14 | Cc1onc(-c2ccccc2Cl)c1C(=O)N1CCC(Nc2nc(N)c(C(=O)c3c(F)cccc3F)s2)CC1 [Example R11] |  |  |  |  | 4 | 49 | 0 | 37
15 | Nc1nc(NC2CCN(C(=O)COc3cc(Cl)c(Cl)cc3Cl)CC2)sc1C(=O)c1c(F)cccc1F [Example R12] |  |  |  |  | −10 | 23 | 0 | 48

— patent US20050101595A1, “N-containing cycloalkyl-substituted amino-thiazole derivatives and pharmaceutical compositions for inhibiting cell proliferation and methods for their use” (PFIZER INC., priority 2003, published 2005)
